Literature values in US20200016159A1, “N3-CYCLICALLY SUBSTITUTED THIENOURACILS AND USE THEREOF” (Bayer Aktiengesellschaft, priority 2016, published 2020).

Columns and labels:
[1] = tested on: prostate cancer cell lines; conditions: cited from earlier work
[2] = tested on: melanoma animal models; conditions: cited from earlier work

**Q.** With `CCCn1c(=O)[nH]c2nc(-c3ccc(S(=O)(=O)N4CCN(c5ccc(Cl)cc5)CC4)cc3)[nH]c2c1=O` [PSB603] as the compound, how does the “growth of several prostate cancer cell lines” value [1] read?
**A.** reduces the growth

**Q.** What about the “tumour growth and metastasis” value [2] of the same compound?
**A.** reduction in tumour growth and metastasis
